Source: US8715706B2, “Methods and devices for delivery of pharmaceutical agents within orifices of the body” (RDD Pharma, Ltd., priority 2009, dated 2014)

How the values were obtained:
anal sphincter [1] = assay: Rectal manometry of resting anal pressure after Nifedipine from localized drug release system; assay type: in vivo, human; conditions: 90 minutes after insertion, N 6
Experimental: Six healthy individuals were selected for measuring resting anal pressure as a function of different doses of Nifedipine administered using a localized drug release system as per an embodiment of the present invention.
All dimensions are when empty before filling with API. When tested in a water bath, substantially all the API exited the shell within 40 minutes.
(§1) The measurements were conducted using 4 mg, 12 mg or 24 mg of Nifedipine as API, respectively. A Nifedipine (API) solution was prepared at 45 degrees Celsius in a heated water bath. A 22 gauge dispensing needle (Techon Systems) was inserted through the tail and into the coated shell of the drug release system. While the shell was evacuated of air, one milliliter of Nifedipine compound was delivered to the shell via a syringe attached to the needle. A clip was used to seal the tail and the system was left until the Nifedipine became solid.
A rectal manometry was used to measure resting anal pressure at baseline (before insertion) and 90 minutes after insertion of each shell with the relevant amount of API in a volume of one milliliter. The time of release of the API (API release time) ranged between 20-25 minutes (the variation due to changes in the normal human body temperature). FIGS. 12A and 12C graphically display the results of this study.

anal canal = conditions: topical, cited from earlier work
anal sphincter [2] = assay: Rectal manometry of resting and squeezing anal pressure tonus after Phenylephrine from localized drug release system; assay type: in vivo, human; design: Squeeze Rectal ref max / Squeeze Abs ref mean: unit not given here
Experimental: The measurements conducted included resting anal pressure tonus and squeezing anal pressure tonus.
as §1, with “using 40” for “using 4 mg, 12”, “mg and 80” for “mg or 24”, “of Phenylephprine” for “of Nifedipine”, “A Phenylephprine” for “A Nifedipine”, “the Phenylephrine” for “the Nifedipine”
A rectal manometer was used to measure resting anal pressure tonus and squeezing anal pressure tonus at baseline (before insertion), […] amount of API in a volume of one milliliter. The API release time ranged between 20-25 minutes (the variation due to changes in the normal human body temperature). The results are shown below in Table III (40 mg) and Table IV (80 mg). Values shown in bold lettering in Table IV represent statistically significant difference (p<0.05) from baseline value, using paired t-test.

[3] = pK studies, rectal rate of absorption using drug release system; conditions: rectally, drug release system of Example 1, FIGS. 14 and 15
Text: Accordingly, it is intended to embrace all such alternatives, modifications and variations that fall within the spirit and broad scope of the appended claims.

COC(=O)C1=C(C)NC(C)=C(C(=O)OC)C1c1ccccc1[N+](=O)[O-] [Nifedipine]
Resting Max Pressure Rectal Ref, Max (anal sphincter [1]; 4 mg): 151.0 | Resting Max Pressure Rectal Ref, Mean (anal sphincter [1]; 4 mg): 111.6 | Resting Max Pressure Rectal Ref, Median (anal sphincter [1]; 4 mg): 111.5 | Resting Max Pressure Rectal Ref, Min (anal sphincter [1]; 4 mg): 72.2 | Resting Mean Pressure Rectal Ref, Max (anal sphincter [1]; 4 mg): 124.0 | Resting Mean Pressure Rectal Ref, Mean (anal sphincter [1]; 4 mg): 94.2 | Resting Mean Pressure Rectal Ref, Median (anal sphincter [1]; 4 mg): 92.3 | Resting Mean Pressure Rectal Ref, Min (anal sphincter [1]; 4 mg): 57.7 | Resting Max Pressure Rectal Ref, Max (anal sphincter [1]; 12 mg): 187.1 | Resting Max Pressure Rectal Ref, Mean (anal sphincter [1]; 12 mg): 105.9 | Resting Max Pressure Rectal Ref, Median (anal sphincter [1]; 12 mg): 88.0 | Resting Max Pressure Rectal Ref, Min (anal sphincter [1]; 12 mg): 79.8 | Resting Mean Pressure Rectal Ref, Max (anal sphincter [1]; 12 mg): 89.4 | Resting Mean Pressure Rectal Ref, Mean (anal sphincter [1]; 12 mg): 75.0 | Resting Mean Pressure Rectal Ref, Median (anal sphincter [1]; 12 mg): 73.2 | Resting Mean Pressure Rectal Ref, Min (anal sphincter [1]; 12 mg): 58.9 | Resting Max Pressure Rectal Ref, Max (anal sphincter [1]; 24 mg): 153.7 | Resting Max Pressure Rectal Ref, Mean (anal sphincter [1]; 24 mg): 90.2 | Resting Max Pressure Rectal Ref, Median (anal sphincter [1]; 24 mg): 79.7 | Resting Max Pressure Rectal Ref, Min (anal sphincter [1]; 24 mg): 58.8 | Resting Mean Pressure Rectal Ref, Max (anal sphincter [1]; 24 mg): 80.0 | Resting Mean Pressure Rectal Ref, Mean (anal sphincter [1]; 24 mg): 63.9 | Resting Mean Pressure Rectal Ref, Median (anal sphincter [1]; 24 mg): 64.4 | Resting Mean Pressure Rectal Ref, Min (anal sphincter [1]; 24 mg): 51.7

CNC[C@H](O)c1cccc(O)c1 [Phenylephrine]
resting pressure (anal canal; 30% and 40%, compared with placebo): significant increase in resting pressure at both time points compared with placebo | median resting pressure (anal canal; concentrations of 10% and 20%): modest increase in median resting pressure, this was not statistically significant | Length HPV (anal sphincter [2]; 40 mg, 90 min): 2.2 cm | Length Verge to center (anal sphincter [2]; 40 mg, 90 min): 0.8 cm | Resting Abs ref Max (anal sphincter [2]; 40 mg, 90 min): 109.0 mm Hg | Resting Abs ref Mean (anal sphincter [2]; 40 mg, 90 min): 95.0 mm Hg | Resting rectal ref Max (anal sphincter [2]; 40 mg, 90 min): 105.1 mm Hg | Resting rectal ref Mean (anal sphincter [2]; 40 mg, 90 min): 91.2 mm Hg | Squeeze Abs ref mean (anal sphincter [2]; 40 mg, 90 min): 348.7 | Squeeze Rectal ref max (anal sphincter [2]; 40 mg, 90 min): 332.4 | Length HPV (anal sphincter [2]; 40 mg, 180 min): 2.1 cm | Length Verge to center (anal sphincter [2]; 40 mg, 180 min): 0.5 cm | Resting Abs ref Max (anal sphincter [2]; 40 mg, 180 min): 127.8 mm Hg | Resting Abs ref Mean (anal sphincter [2]; 40 mg, 180 min): 93.1 mm Hg | Resting rectal ref Max (anal sphincter [2]; 40 mg, 180 min): 124.0 mm Hg | Resting rectal ref Mean (anal sphincter [2]; 40 mg, 180 min): 89.2 mm Hg | Squeeze Abs ref mean (anal sphincter [2]; 40 mg, 180 min): 336.5 | Squeeze Rectal ref max (anal sphincter [2]; 40 mg, 180 min): 318.8 | Length HPV (anal sphincter [2]; 40 mg, 240 min): 2.5 cm | Length Verge to center (anal sphincter [2]; 40 mg, 240 min): 0.8 cm | Resting Abs ref Max (anal sphincter [2]; 40 mg, 240 min): 94.2 mm Hg | Resting Abs ref Mean (anal sphincter [2]; 40 mg, 240 min): 82.5 mm Hg | Resting rectal ref Max (anal sphincter [2]; 40 mg, 240 min): 88.7 mm Hg | Resting rectal ref Mean (anal sphincter [2]; 40 mg, 240 min): 77.0 mm Hg | Squeeze Abs ref mean (anal sphincter [2]; 40 mg, 240 min): 376.7 | Squeeze Rectal ref max (anal sphincter [2]; 40 mg, 240 min): 363.3 | mean resting anal pressure (anal sphincter [2]; 80 mg in 1 cc volume (8% concentration)): significant increase in the mean resting anal pressure | Length HPV (anal sphincter [2]; 80 mg, 90 min): 2.2 cm | Length Verge to center (anal sphincter [2]; 80 mg, 90 min): 0.5 cm | Resting Abs ref Max (anal sphincter [2]; 80 mg, 90 min): 139.9 mm Hg | Resting Abs ref Mean (anal sphincter [2]; 80 mg, 90 min): 107.6 mm Hg | Resting rectal ref Max (anal sphincter [2]; 80 mg, 90 min): 136.5 mm Hg | Resting rectal ref Mean (anal sphincter [2]; 80 mg, 90 min): 104.2 mm Hg | Squeeze Abs ref mean (anal sphincter [2]; 80 mg, 90 min): 364.1 | Squeeze Rectal ref max (anal sphincter [2]; 80 mg, 90 min): 352.4 | Length HPV (anal sphincter [2]; 80 mg, 180 min): 2.6 cm | Length Verge to center (anal sphincter [2]; 80 mg, 180 min): 0.7 cm | Resting Abs ref Max (anal sphincter [2]; 80 mg, 180 min): 111.8 mm Hg | Resting Abs ref Mean (anal sphincter [2]; 80 mg, 180 min): 90.8 mm Hg | Resting rectal ref Max (anal sphincter [2]; 80 mg, 180 min): 109.2 mm Hg | Resting rectal ref Mean (anal sphincter [2]; 80 mg, 180 min): 88.2 mm Hg | Squeeze Abs ref mean (anal sphincter [2]; 80 mg, 180 min): 350.7 | Squeeze Rectal ref max (anal sphincter [2]; 80 mg, 180 min): 337.6 | Length HPV (anal sphincter [2]; 80 mg, 270 min): 2.5 cm | Length Verge to center (anal sphincter [2]; 80 mg, 270 min): 0.9 cm | Resting Abs ref Max (anal sphincter [2]; 80 mg, 270 min): 96.1 mm Hg | Resting Abs ref Mean (anal sphincter [2]; 80 mg, 270 min): 83.1 mm Hg | Resting rectal ref Max (anal sphincter [2]; 80 mg, 270 min): 92.5 mm Hg | Resting rectal ref Mean (anal sphincter [2]; 80 mg, 270 min): 79.5 mm Hg | Squeeze Abs ref mean (anal sphincter [2]; 80 mg, 270 min): 340.4 | Squeeze Rectal ref max (anal sphincter [2]; 80 mg, 270 min): 321.2 | anal sphincter pressures at resting and at squeezing conditions (anal sphincter [2]; 40 and 80 mg): increased in a dose-dependent manner

Glucagon
rate of absorption [3]: relatively quickly absorbed
